Data reported in patent EP0136831A2, “Azahomoerythromycin B derivatives and intermediates thereof” (PFIZER INC., priority 1983, dated 1985).
≈ marks a conversion by molar mass, not a printed value. Like-named read-outs stand apart in the source and are kept apart here.

What was measured:
[1] = test system: E. coli; experiment: MIC in brain heart infusion (BHI) broth; assay type: cell-based; settings: Escherichia coli
[2] = test system: Staph. epi; experiment: MIC in brain heart infusion (BHI) broth; assay type: cell-based; settings: strain 111
Source text: (§1) Generally twelve 2 fold dilutions of the test compound. are employed, with initial concentration of the test drug being in the range of 50 to 200 mcg/ml. The susceptibility (MIC) of the test organism is accepted as the lowest concentration of compound capable of producing complete inhibition of growth as judged by the naked eye.

[3] = test system: Serr. mar.; experiment: MIC in brain heart infusion (BHI) broth; assay type: cell-based; settings: strain 017
Source text: as §1

[4] = test system: Strep. faec.; experiment: MIC in brain heart infusion (BHI) broth; assay type: cell-based; settings: strain 006
Source text: as §1

[5] = test system: Kleb. oxy.; experiment: MIC in brain heart infusion (BHI) broth; assay type: cell-based; settings: strain 024
Source text: as §1

[6] = test system: Staph. aur.; experiment: MIC in brain heart infusion (BHI) broth; assay type: cell-based
Source text: as §1

[7] = test system: Ent. cloac.; experiment: MIC in brain heart infusion (BHI) broth; assay type: cell-based; settings: strain 009
Source text: as §1

[8] = test system: H. influ.; experiment: MIC in brain heart infusion (BHI) broth; assay type: cell-based
Source text: as §1

[9] = test system: Past. mult.; experiment: MIC in brain heart infusion (BHI) broth; assay type: cell-based; settings: strain 001
Source text: as §1

[10] = test system: Neiss. sic.; experiment: MIC in brain heart infusion (BHI) broth; assay type: cell-based; settings: strain 000
Source text: as §1

[11] = test system: Strep. pyog.; experiment: MIC in brain heart infusion (BHI) broth; assay type: cell-based; settings: strain 203
Source text: as §1

[12] = test system: Prov. strua.; experiment: MIC in brain heart infusion (BHI) broth; assay type: cell-based; settings: strain 013
Source text: as §1

[13] = test system: Kleb. pn.; experiment: MIC in brain heart infusion (BHI) broth; assay type: cell-based; settings: for MIC: strain 009
[14] = test system: Ent. aerog.; experiment: MIC in brain heart infusion (BHI) broth; assay type: cell-based; settings: strain 040
[15] = Microbiological (bioassay) determination of serum levels after oral dosage; assay type: in vivo; settings: mice
Method: Additionally, the compounds (II) and (VI) are tested in vivo by the well-known mouse protection test, or by a microbiological (bioassay) determination of serum levels in a variety of mammals (e.g., mouse, rat, dog).

[16] = strain 036, read-out: MIC Values
[17] = strain 038, read-out: MIC Values
[18] = strain 042, read-out: MIC Values
[19] = strain 051, read-out: MIC Values
[20] = strain 073, read-out: MIC Values
[21] = strain 078, read-out: MIC Values
[22] = strain 081, read-out: MIC Values

SMILES	MIC ([1]; strain 125) [µg/mL]	MIC ([1]; strain 129) [µg/mL]	MIC ([1]; strain 266) [µg/mL]	MIC ([1]; strain 470) [µg/mL]	MIC [2] [µg/mL]	MIC [3] [µg/mL]	MIC [4] [µg/mL]	MIC [5] [µg/mL]	MIC ([6]; strain 005) [µg/mL]	MIC ([6]; strain 052) [µg/mL]	MIC ([6]; strain 400) [µg/mL]	MIC [7] [µg/mL]	MIC [9] [µg/mL]	MIC [11] [µg/mL]	MIC [12] [µg/mL]	MIC [13] [µg/mL]	MIC [14] [µg/mL]	MIC [8, 16] [µg/mL]	MIC [8, 17] [µg/mL]	MIC [8, 18] [µg/mL]	further results
CC[C@H]1OC(=O)[C@H](C)[C@@H](O[C@H]2C[C@@](C)(OC)[C@@H](O)[C@H](C)O2)[C@H](C)[C@@H](O[C@@H]2O[C@H](C)C[C@H](N(C)C)[C@H]2O)[C@](C)(O)C[C@@H](C)C(=O)[C@H](C)[C@@H](O)[C@]1(C)O [(1), Erythromycin A]	> 50	> 50	> 50	1.56 (≈ 2.13 µM)	0.05 (≈ 0.0681 µM)	> 50	0.39 (≈ 0.531 µM)	> 50	0.05 (≈ 0.0681 µM)	0.1 (≈ 0.136 µM)	6.25 (≈ 8.52 µM)	> 50	0.78 (≈ 1.06 µM)	0.025 (≈ 0.0341 µM)	> 50	> 50	> 50				MIC ([8]; read-out: MIC Values, strain 012): 3.12 µg/mL (≈ 4.25 µM); MIC ([8]; read-out: MIC Values, strain 036): 3.12 µg/mL (≈ 4.25 µM); MIC ([8]; read-out: MIC Values, strain 038): 1.56 µg/mL (≈ 2.13 µM); MIC ([8]; read-out: MIC Values, strain 042): 3.12 µg/mL (≈ 4.25 µM); MIC ([8]; read-out: MIC Values, strain 051): 3.12 µg/mL (≈ 4.25 µM); MIC ([8]; read-out: MIC Values, strain 073): 3.12 µg/mL (≈ 4.25 µM); MIC ([8]; read-out: MIC Values, strain 078): 1.56 µg/mL (≈ 2.13 µM); MIC ([8]; read-out: MIC Values, strain 081): 3.12 µg/mL (≈ 4.25 µM); MIC [10]: 3.12 µg/mL (≈ 4.25 µM)
CC[C@H]1OC(=O)[C@H](C)[C@@H](O[C@H]2C[C@@](C)(OC)[C@@H](O)[C@H](C)O2)[C@H](C)[C@@H](O[C@@H]2O[C@H](C)C[C@H](N(C)C)[C@H]2O)[C@](C)(O)C[C@@H](C)CN(C)[C@H](C)[C@@H](O)[C@]1(C)O [(2), 9-Deoxo-9a-methyl-9a-aza-9a-homoerythromycin A]		6.25 (≈ 8.34 µM)	6.25 (≈ 8.34 µM)	0.78 (≈ 1.04 µM)	0.1 (≈ 0.134 µM)		1.56 (≈ 2.08 µM)	25 (≈ 33.4 µM)	0.2 (≈ 0.267 µM)	0.39 (≈ 0.521 µM)	25 (≈ 33.4 µM)	25 (≈ 33.4 µM)	0.1 (≈ 0.134 µM)	0.025 (≈ 0.0334 µM)	50 (≈ 66.8 µM)			0.78 (≈ 1.04 µM)	0.78 (≈ 1.04 µM)	0.78 (≈ 1.04 µM)	MIC [8, 19]: 1.56 µg/mL (≈ 2.08 µM); MIC [8, 20]: 0.78 µg/mL (≈ 1.04 µM); MIC [8, 21]: 0.39 µg/mL (≈ 0.521 µM); MIC [8, 22]: 0.78 µg/mL (≈ 1.04 µM)
CC[C@H]1OC(=O)[C@H](C)[C@@H](O[C@H]2C[C@@](C)(OC)[C@@H](O)[C@H](C)O2)[C@H](C)[C@@H](O[C@@H]2O[C@H](C)C[C@H](N(C)C)[C@H]2O)[C@](C)(O)C[C@@H](C)CN(C)[C@H](C)[C@@H](O)[C@H]1C [compound (II), 9-Deoxo-9a-methyl-9a-aza-9a-homoerythromycin B]	50 (≈ 68.2 µM)	25 (≈ 34.1 µM)	25 (≈ 34.1 µM)	0.39 (≈ 0.532 µM)	0.2 (≈ 0.273 µM)	> 50	1.56 (≈ 2.13 µM)	50 (≈ 68.2 µM)	0.39 (≈ 0.532 µM)	0.39 (≈ 0.532 µM)	> 50	> 50	0.1 (≈ 0.136 µM)	0.025 (≈ 0.0341 µM)	> 50	50 (≈ 68.2 µM)	> 50	3.12 (≈ 4.26 µM)	3.12 (≈ 4.26 µM)	1.56 (≈ 2.13 µM)	MIC ([8]; strain 012, read-out: MIC Values): 1.56 µg/mL (≈ 2.13 µM); MIC [8, 19]: 3.12 µg/mL (≈ 4.26 µM); MIC [8, 20]: 0.2 µg/mL (≈ 0.273 µM); MIC [8, 21]: 0.78 µg/mL (≈ 1.06 µM); MIC [8, 22]: 1.56 µg/mL (≈ 2.13 µM); MIC Values ([13]; strain 031): 50 µg/mL (≈ 68.2 µM); absorption after oral dosage [15]: exceptionally well absorbed; serum levels [15]: exceptionally high and long lasting
